# Measured values as given in patent US7312302B2, “Compositions for the detection of enzyme activity in biological samples and methods of use thereof” (Oncolmmunin, Inc., priority 1997, dated 2007).
# Non-standard residues stand in square brackets, D forms with d. Residues, ends and D or L forms follow the SMILES beside them. No end group written: not given here. *: point of attachment. F1 = 5-carboxytetramethylrhodamine (donor fluorophore); code B = not defined here; code J = not defined here; Nle = CCCC[C@H](N)C(=O)O; Cbz = O=C(OCc1ccccc1)*; F^2 = not defined here; CH2F = FC*
# Tests used:
# intracellular caspases = test: Effect of ZVAD(OMe)FMK on in situ caspase activation in dexamethasone-treated thymocytes, flow cytometry at 6 h; format: cell-based, mouse; parameters: effect when added before or simultaneously with dexamethasone: dose or concentration left out as unconfirmed
# Protocol: Thymocytes were treated with 0.1 mM dexamethasone in vitro and analyzed after a total of 6 h incubation. The apoptosis inhibitor ZVAD(OMe)FMK was added at various times of incubation as indicated, and the caspase activities were assessed by flow cytometry. The results are expressed as ratios of mean fluorescence channel number comparing the activity in the presence of 50 mM ZVAD(OMe)FMK with the uninhibited sample for that substrate.
# Single cell suspensions of thymocytes were cultured in RPMI 1640 with 10% FCS at a concentration of 10 6 cells/ml. Dexamethasone (final concentration, 0.1 mM) and ZVAD (OMe)FMK (final concentration, 50 mM) were added at the indicated times from stock solutions in DMSO (100 mM for dexamethasone and 200 mM for ZVAD[OMe]FMK). […] After washing in saline, cells were analyzed by flow cytometry. […] The fluorescence intensity was then monitored for 30-60 min. The initial velocity was calculated from the linear portion of the fluorescence increase. […]
# The ability to detect intracellular caspase activities allowed us to study the pharmacological target of the potent apoptosis inhibitor ZVAD(OMe)FMK. […] Activity was assessed by the mean fluorescence channel number of PInegative cells. […] However, when addition of this inhibitor was delayed, the intracellular activity of all caspases detected rose, with no significant selective depletion of activity. […]
# thymocytes = conditions: in vitro; cited from earlier work
# [1] = intravenously injected antiFas; ischemia-reperfusion stroke model; cited from earlier work
# elastase [2] = test: Elastase digestion of fluorogenic protease indicator, HPLC of cleavage products; format: biochemical; conditions: 1 unit of elastase, about 30 minutes, 37° C., pH 8.9
# Protocol: Approximately 1 microgram of protease indicator, having the formula F^1-Asp-Ala-Ile-Pro-Nle-Ser-Ile-Pro-Cys-F^2 (SEQ ID No: 184) where F^1 is a donor fluorophore (5′-carboxytetramethylrhodamine (5-TMR)) linked to aspartic acid via the alpha amino group and F^2 is an acceptor fluorophore (rhodamine X acetamide (R492)) linked via the sulfhydryl group of the cysteine was dissolved in a buffer consisting of 50 mM sodium phosphate, 1 mM EDTA at pH 8.9. To this solution was added 1 unit of elastase. The solution was analyzed by HPLC before and about 30 minutes after the addition of elastase. The digestion was carried out at 37° C. The HPLC separated components were monitored at a wavelength of 550 nm which allowed detection of both the 5-TMR fluorophore the R492 fluorophore and at 580 nm which allowed detection of the R492 fluorophore.
# In addition, the two predominant peaks in FIGS. 1(b) and 1(c) indicate that the digestion occurred primarily at a single site.
# elastase [3] = test: Emission spectrum change of indicator after addition of elastase (spectrofluorometer); format: biochemical; conditions: 37° C., slit widths 4 nm
# Protocol: Changes in the emission spectrum of the fluorogenic protease indicator after the addition of an elastase protease was monitored using an SLM spectrofluorometer model 48000 with slit widths set at 4 nm on both the excitation and emission sides. All measurements were carried out at 37° C.
# Spectra in FIG. 2 show emission of the fluorogenic protease indicator (a) before and (b) after addition of elastase, while the time dependent increase of the indicator's donor fluorophore emission intensity, after addition of elastase, is plotted in FIG. 3. […] The changes in intensity between treated and untreated indicators are, to some degree, a function of slit widths used, since they represent the signal integrated across the particular slit width. Thus, if wider slit widths were used (e.g. 8 or 16 nm slits) an even greater signal would be provided in response to digestion.
# CPP32 protease = biological target: T1, CPP32 protease (Homo sapiens, UniProt P42574); test: Flow cytometric analysis of intracellular CPP32 protease activity in anti-Fas activated Jurkat cells; format: cell-based
# T1 construct: served as a direct measure of the intracellular CPP32 protease activity; endogenous in cells
# T1 sequence (P42574 29-277): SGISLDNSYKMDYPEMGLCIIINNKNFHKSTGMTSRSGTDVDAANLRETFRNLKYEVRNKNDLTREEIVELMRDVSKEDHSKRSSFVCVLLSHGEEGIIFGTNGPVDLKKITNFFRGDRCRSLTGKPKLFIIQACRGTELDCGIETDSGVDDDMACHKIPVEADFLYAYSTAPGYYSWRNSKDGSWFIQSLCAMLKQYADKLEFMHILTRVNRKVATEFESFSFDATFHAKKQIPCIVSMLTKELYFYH
# Protocol: The concentration of substrates used in flow cytometric analysis was 10 M in RPMI1640 medium containing 4 to 10% fetal calf serum. Cell densities during incubation with the chosen substrates ranged from 50,000 cells per ml to 4,000,000 per ml. Incubation times were from 30 min. to 3 hours at 37° C. and incubation volumes were 50 μL to 2 ml. After incubation with substrate for 30 to 60 min. cell suspensions were diluted 10-fold with ice cold Hank's Buffered Saline Solution (HBSS). This filtered cell suspension was then subjected to flow cytometric analysis using a 488 nm excitation source. Becton Dickenson, Inc.'s flow cytometer, FacSort, was used in the flow cytometric analysis. […]
# Control cells without substrate incubation and the sample with the greatest expected fluorescence signals were used to set the instrument detector parameters. For example after 15 minutes incubation of Jurkat cells with substrate compound #11 Fm-CGD2D: Fm—K[F1]DBJGDEVDGIDGJPK[F1]GY (SEQ ID NO: 202, where F1 was carboxytetramethylrhodamine; Fm was Fmoc, K[F1] was F1 covalently attached through the epsilon amino group of lysine (K), Nlu was norleucine, B was aminoisobutyric acid, and J was epsilon-aminocaproic acid) an increase of about 10 channels indicating cellular uptake of the substrates was measured. […] As much as a ten-fold increase in fluorescence intensity was observed. […]
# [4] = system: Jurkat cells, HL-60 cells, human lymphocyte lines, A1.1 cells, murine primary thymocytes; test: Cellular uptake of substrates by fluorescence microscopy, flow cytometry, HPLC; format: cell-based; conditions: viable cells
# Protocol: The compounds listed in Table 6 were synthesized and assayed for cellular uptake. Cellular internalization of the substrates was tested using Jurkat cells (a human acute T cell leukemic line), HL-60 cells (a human promyelocytic leukemic line), human lymphocyte lines, A1.1 cells (a murine T-cell line), and murine primary thymocytes. Procedures used in determining substrate uptake by viable cells are provided in Example 6 (for the HPLC procedures), in Example 2 (for the fluorescence microscopic analysis), and in Example 3 (for the flow cytometric analysis) a summary of these analyses with respect to cellular uptake of substrates is presented in this example.
# The elastase substrate, Fm—K[F1]DAIPNluSIPK[F1]GY (SEQ ID NO:185), (where F1 was carboxytetramethylrhodamine, Fm was Fmoc, K[F1] was F1 covalently attached through the epsilon amino group of lysine (K), and Fm—K is the Fmoc group covalently attached at the alpha amino group of the amino terminal lysine residue) was used with HL-60 cells. Cells were incubated with various concentrations of elastase substrate ranging from 10 nM to 10 μM for 5 minutes to 60 minutes. Then the cells were diluted 5-fold with RPMI 1640 medium containing 5% serum or with phosphate buffered saline. The samples were centrifuged and washed once more with 1 ml of washing solution. After centrifugation and removal of the washing solution, cell pellets were loosened with about 25 ul of medium and these cells were transferred to a glass capillary. Capillary tubes were then placed on a glass microscope slide and examined under a fluorescence microscope using standard rhodamine filters.
# For apoptosis-related protease activity determination, 10 μM concentration of the compounds listed in Example 8 (compound structures 2 through 13) were incubated with cells for 30 min. to 3 hours. The cells were then washed similarly twice. Using glass capillary tubes, the washed cells were transferred and examined under a fluorescence microscope.
# The concentration of substrates used in flow cytometric analysis was 10 M in RPMI1640 medium containing 4 to 10% fetal calf serum. Cell densities during incubation with the chosen substrates ranged from 50,000 cells per ml to 4,000,000 per ml. Incubation times were from 30 min. to 3 hours at 37° C. and incubation volumes were 50 μL to 2 ml. After incubation with substrate for 30 to 60 min. cell suspensions were diluted 10-fold with ice cold Hank's Buffered Saline Solution (HBSS). This filtered cell suspension was then subjected to flow cytometric analysis using a 488 nm excitation source. Becton Dickenson, Inc.'s flow cytometer, FacSort, was used in the flow cytometric analysis. Typically, 10,000 to 30,000 events per sample were collected.
molecule,measurement,setting,value
"COC(=O)C[C@H](NC(=O)[C@H](C)NC(=O)[C@@H](NC(=O)OCc1ccccc1)C(C)C)C(=O)CF [ZVAD(OMe)FMK, carbobenzoxyvalylalanylaspartyl(bmethyl ester)fluoromethyl ketone] (Cbz-Val-Ala-Asp(OMe)-CH2F)",effect of pretreatment followed by washing before dexamethasone addition,intracellular caspases,minimal inhibition
same,effect when added before or simultaneously with dexamethasone,intracellular caspases,blocks apoptosis
same,block of dexamethasone-induced thymocyte apoptosis,thymocytes,specifically blocks
same,protection of mice,[1],protect mice from the lethal effects
"F^1-Asp-Ala-Ile-Pro-Nle-Ser-Ile-Pro-Cys-F^2 (DAIP[Nle]SIPC-{F^2}; not fully specified (residue 9, N-terminus); printed as F1-Asp-Ala-Ile-Pro-Nle-Ser-Ile-Pro-Cys-F2; reading uncertain) [D-NorFES-A, F1 5'-carboxytetramethylrhodamine donor, F2 rhodamine X acetamide acceptor]",degree of cleavage by elastase (HPLC),elastase [2],complete digestion
same,increase in fluorescence at 589 nm after treatment with elastase,elastase [3],> 10 fold
same,increase in fluorescence within the first 1000 seconds of exposure to the protease,elastase [3],> 5 fold
Fm-K[F1]DBJGDEVDGIDGJPK[F1]GY (K(F1)D[code B][code J]GDEVDGIDG[code J]PK(F1)GY; not fully specified (N-terminus); printed as Fm-K[F1]DBJGDEVDGIDGJPK[F1]GY; reading uncertain) [Compound 11],increase in fluorescence intensity in activated cells,CPP32 protease; 1 μg/ml anti-Fas antibody CH11 for 1 to 6 hours,ten-fold
same,increase in channels indicating cellular uptake,CPP32 protease; 15 minutes incubation,about 10 channels
same,cellular uptake (Table 6),[4],efficient cellular uptake
